# Results as given in US4977184A, “Bicyclic peroxides compositions for and treatment of malaria therewith” (Hoffmann-La Roche Inc., priority 1987, dated 1990).
# System: Plasmodium berghey
# Assay: Blood schizontocidal activity in infected mice (ED50, s.c., four-fold administration)
# Assay type: in vivo, Plasmodium berghey; male albino mice
# Conditions: mice infected with Plasmodium berghey, first 3 h after infection and on three subsequent days, smears D+4
# Procedure: They have a pronounced blood schizontocidal activity. The activity of the substances in accordance with the invention can be determined, for example, in the animal experiment described hereinafter: Male albino mice weighing 18-20 g are used as the experimental animals. They are kept in climatized rooms at 22°-23° C. in groups of 5 animals per cage. They receive ad libitum a diet feed with low PABA content and drinking water. On the first day of the experiment (DO) the experimental animals are infected with Plasmodium berghey by intravenously injecting into each of the experimental animals 0.2 ml of heparinized blood of infected donor mice. The donor blood is diluted so that it contains 10^7 parasitized erythrocytes per 0.2 ml. In untreated control animals the parasitemia normally reaches 70-80% on the fourth day after the infection (D+4) and the experimental animals die between days +5 to +8. The substances to be tested are dissolved or suspended in distilled water or in a mixture of Tween 80, alcohol (96%) and water. Generally, in each case 0.5 ml of this solution or suspension is administered subcutaneously to groups of 5 experimental animals. The treatment is effected for the first time 3 hours after the infection as well as on the three subsequent days. Suitable dilutions of the test compounds are used for the titration of the activity. Per experiment 10 animals are treated in the same manner with the solution or suspension medium. 24 hours after the last treatment (D+4) blood smears with blood from tail veins are prepared from all animals and stained with giemsa. The average erythrocyte infection rate (parasitemia in %) in the control group as well as in the groups which have been treated with the compounds to be tested is determined by counting under the microscope. The difference in the average value of the infection rate between control group (100%) and the treated groups is calculated and expressed as the percentage reduction. The ED50 is determined mathematically from the results obtained. The ED50 in mg/kg is that dosage which, after four-fold administration, reduces to 50% the average erythrocyte infection rate in comparison to the control group. The results which have been obtained with representative members of the class of substance defined by formula I in the previously described experiment are compiled in the following Table. Moreover, the Table contains data concerning the toxicity of some of these compounds.
row,SMILES,"Activity ED50 (dosage which, after four-fold administration, reduces to 50% the average erythrocyte infection rate versus control) [mg/kg]"
1,"CCCCCCCCCCC[C@]1(C)OO[C@@H]2C[C@H]1CC(=O)[C@@H]2C [(CH2)10CH3 (1R, 4S, 5S, 8R), (1R,4S,5S,8R)-4,8-dimethyl-4-undecyl-2,3-dioxabicyclo[3.3.1]nonan-7-one]",3.4
2,"CCCCCCCCCC[C@]1(C)OO[C@@H]2C[C@H]1CC(=O)[C@@H]2C [(CH2)9CH3 (1R, 4S, 5S, 8R), (1R,4S,5S,8R)-4-decyl-4,8-dimethyl-2,3-dioxabicyclo[3.3.1]-nonan-7-one]",3.4
3,"CCCCCCCC/C=C/[C@]1(C)OO[C@@H]2C[C@H]1CC(=O)[C@@H]2C [CHCH(CH2)7CH3 (1R, 4R, 5S, 8R), (1R,4R,5S,8R)-4-[(E)-1-decenyl]-4.8-dimethyl-2,3-dioxabicyclo[3.3.1]nonan-7-one]",6.2
4,"C[C@@H]1C(=O)C[C@H]2C[C@@H]1OO[C@@]2(C)/C=C\c1ccc(Cl)cc1Cl [drawing 10 (1S, 4R, 5R, 8S)]",4.6
5,"CCCCCCCCC[C@@]1(C)OO[C@@H]2C[C@H]1CC(=O)[C@@H]2C [(CH2)8CH3 (1R, 4R, 5S, 8R), (1R,4R,5S,8R)-4.8-dimethyl-4-nonyl-2,3-dioxabicyclo[3.3.1]nonan-7-one]",3.6
6,"CCCCCCCCCCC[C@@]1(C)OO[C@@H]2C[C@H]1CC(=O)[C@@H]2C [(CH2)10CH3 (1R, 4R, 5S, 8R), (1R,4R,5S,8R)-4,8-dimethyl-4-undecyl-2,3-dioxabicyclo[3.3.1]nonan-7-one]",5.2
7,"C[C@H]1C(=O)C[C@@H]2C[C@H]1OO[C@]2(C)/C=C\c1cc(C(F)(F)F)nc2cc(C(F)(F)F)ccc12 [drawing 9 (1R, 4S, 5S, 8R)]",6.2
8,"CCCCCCCC[C@@]1(C)OO[C@@H]2C[C@H]1CC(=O)[C@@H]2C [(CH2)7CH3 (1R, 4R, 5S, 8R), (1R,4R,5S,8R)-4,8-dimethyl-4-octyl-2,3-dioxabicyclo[3.3.1]nonan-7-one]",6.4
9,"CCCCCCCCCCC[C@@]1(C)OO[C@H]2C[C@@H]1CC(=O)[C@H]2C [(CH2)10CH3 (1S, 4R, 5R, 8S), (1S,4R,5R,8S)-4,8-dimethyl-4-undecyl-2,3-dioxabicyclo[3.3.1]nonan-7-one]",4.6
10,"CCCCCCCCC[C@]1(C)OO[C@@H]2C[C@H]1CC(=O)[C@@H]2C [(CH2)8CH3 (1R, 4S, 5S, 8R), (1R,4S,5S,8R)-4,8-dimethyl-4-nonyl-2,3-dioxabicyclo[3.3.1]nonan-7-one]",6.0
11,"C[C@@H]1C(=O)C[C@H]2C[C@@H]1OO[C@@]2(C)/C=C\c1cc(C(F)(F)F)nc2cc(C(F)(F)F)ccc12 [drawing 9 (1S, 4R, 5R, 8S)]",5.4
12,"CCCCCCCC/C=C/[C@@]1(C)OO[C@@H]2C[C@H]1CC(=O)[C@@H]2C [CHCH(CH2)7CH3 (1R, 4S, 5S, 8R), (1R,4S,5S,8R)-4-[(E)-1-decenyl]-4,8-dimethyl-2,3-dioxabicyclo[3.3.1]nonan-7-one]",4.5
13,"CCCCCCCCCC[C@@]1(C)OO[C@@H]2C[C@H]1CC(=O)[C@@H]2C [(CH2)9CH3 (1R, 4R, 5S, 8R), (1R,4R,5S,8R)-4-decyl-4,8-dimethyl-2,3-dioxabicyclo[3.3.1]nonan-7-one]",5.2
14,"CCCCCCCCCCC[C@]1(C)OO[C@H]2C[C@@H]1CC(=O)[C@H]2C [(CH2)10CH3 (1S, 4S, 5R, 8S), (1S,4S,5R,8S)-4,8-dimethyl-4-undecyl-2,3-dioxabicyclo[3.3.1]nonan-7-one]",5.9
15,"CCCCCCCC[C@]1(C)OO[C@@H]2C[C@H]1CC(=O)[C@@H]2C [(CH2)7CH3 (1R, 4S, 5S, 8R), (1R,4S,5S,8R)-4,8-dimethyl-4-octyl-2,3-dioxabicyclo[3.3.1]nonan-7-one]",5.2

# System: not listed separately
# Assay: Toxicity, single oral administration to mice
# Conditions: mouse, in vivo, p.o., no toxic symptoms at the dosage indicated, read-out: Toxicity, Dosage (no toxic symptoms observed at this amount)
# Excerpt: The results which have been obtained with representative members of the class of substance defined by formula I in the previously described experiment are compiled in the following Table. Moreover, the Table contains data concerning the toxicity of some of these compounds.
row,SMILES,NOAEL [mg/kg]
1,"CCCCCCCCCCC[C@]1(C)OO[C@@H]2C[C@H]1CC(=O)[C@@H]2C [(CH2)10CH3 (1R, 4S, 5S, 8R), (1R,4S,5S,8R)-4,8-dimethyl-4-undecyl-2,3-dioxabicyclo[3.3.1]nonan-7-one]",3000
2,C[C@H]1C(=O)C[C@@H]2C[C@H]1OO[C@]2(C)/C=C\c1cc(C(F)(F)F)nc2cc(C(F)(F)F)ccc12 [drawing 9],6000
3,"CCCCCCCCCCC[C@@]1(C)OO[C@@H]2C[C@H]1CC(=O)[C@@H]2C [(CH2)10CH3 (1R, 4R, 5S, 8R), (1R,4R,5S,8R)-4,8-dimethyl-4-undecyl-2,3-dioxabicyclo[3.3.1]nonan-7-one]",3000
